Reference: patent publication US8455475B2 (Gruenenthal GmbH, priority 2009, dated 2013)

Experiments:
[1] = target: T1, rat B1R (bradykinin receptor 1) (Rattus norvegicus, UniProt P97583); test: FLIPR Ca2+ assay (Fluo-4) on CHO K1 cells stably transfected with the B1R gene of the rat (rB1R cells): % inhibition at 10 μM / IC50, agonist Des-Arg9-bradykinin; format: cell-based; details: CHO-K1, rat B1R
T1 construct: expressed in transfected cells; host or cells: CHO K1 cells
T1 sequence (P97583 1-337): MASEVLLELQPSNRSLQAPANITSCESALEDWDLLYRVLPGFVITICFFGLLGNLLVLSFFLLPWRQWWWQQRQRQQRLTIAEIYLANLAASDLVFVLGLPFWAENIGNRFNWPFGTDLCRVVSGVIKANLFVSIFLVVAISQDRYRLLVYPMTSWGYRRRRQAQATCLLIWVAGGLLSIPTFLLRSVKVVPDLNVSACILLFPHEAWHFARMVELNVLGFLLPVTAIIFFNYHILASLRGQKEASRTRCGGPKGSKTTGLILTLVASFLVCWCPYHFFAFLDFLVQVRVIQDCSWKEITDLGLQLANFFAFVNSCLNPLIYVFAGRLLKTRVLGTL
Procedure, shortened: (§1)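 Loading with Fluo-4 occurs for 60 min at 37 °C, or alternatively in buffer A, before FLIPR measurement. Compounds are applied, incubated 10–20 min, and then the EC80 agonist is added. Antagonism appears as reduced peak Ca2+ signal relative to maximal inhibition.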

[2] = target: T2, human B1R (bradykinin receptor 1) (Homo sapiens, UniProt P46663); test: FLIPR Ca2+ assay (Fluo-4) on CHO K1 cells stably transfected with the human B1R gene (hB1R cells): % inhibition at 10 μM / IC50, agonist Lys-Des-Arg9-bradykinin; format: cell-based; details: CHO-K1, human B1R
T2 construct: expressed in transfected cells; host or cells: CHO K1 cells
T2 sequence (P46663 1-353): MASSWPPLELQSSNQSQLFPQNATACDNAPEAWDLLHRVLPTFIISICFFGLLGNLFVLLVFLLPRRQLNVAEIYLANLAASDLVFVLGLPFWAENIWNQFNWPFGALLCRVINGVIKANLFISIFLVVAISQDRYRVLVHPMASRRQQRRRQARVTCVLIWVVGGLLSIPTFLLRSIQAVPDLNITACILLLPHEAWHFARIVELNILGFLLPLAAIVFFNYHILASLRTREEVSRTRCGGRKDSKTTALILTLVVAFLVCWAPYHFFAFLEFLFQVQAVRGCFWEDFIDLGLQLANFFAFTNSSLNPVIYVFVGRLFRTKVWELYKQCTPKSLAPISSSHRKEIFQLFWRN
Procedure, shortened: as §1

| Structure (SMILES) | inhibition at 10 µM [1] [%] | inhibition at 10 µM [2] [%] |
| --- | --- | --- |
| Cc1cc2c(cc1C(=O)N1CCC3(CC1)CCN(c1ccncc1)CC3)[C@H](NC(=O)c1ccccc1Cl)CC2 [Example H-66, 2-Chloro-N-[(1R)-5-methyl-6-(9-pyridin-4-yl-3,9-diazaspiro[5.5]undecane-3-carbonyl)-2,3-dihydro-1H-inden-1-yl]-benzamide] | 102 | 99 |
| O=C(N[C@@H]1CCOc2ccc(C(=O)N3CCC4(CCN(c5ccncc5)CC4)C3)cc21)c1ccccc1Cl [Example H-67, 2-Chloro-N-[(4R)-6-(8-pyridin-4-yl-3,8-diazaspiro[4.5]decane-3-carbonyl)-3,4-dihydro-2H-chromen-4-yl]-benzamide] | 102 | 100 |
| COc1ccc2cc(C(=O)N[C@@H]3CCc4ccc(C(=O)N5CCC6(CC5)CCN(c5ccncc5)C6)cc43)ccc2c1 [Example H-68, 6-Methoxy-N-[(1R)-6-(3-pyridin-4-yl-3,8-diazaspiro[4.5]decane-8-carbonyl)-2,3-dihydro-1H-inden-1-yl]-naphthalene-2-carboxylic acid amid] | 93 | 96 |
| O=C(N[C@@H]1CCCc2ccc(C(=O)N3CCCC4(CCCN(c5ccncc5)C4)C3)cc21)c1ccccc1Cl (some centres unmarked) [Example H-69] | 102 | 98 |
| O=C(N[C@@H]1CCCc2ccc(C(=O)N3CCCC4(CCN(c5ccncc5)C4)C3)cc21)c1ccccc1Cl (stereo partly drawn) [Example H-70, 2-Chloro-N-[(1R)-7-(2-pyridin-4-yl-2,9-diazaspiro[4.5]decane-9-carbonyl]-1,2,3,4-tetrahydro-naphthalen-1-yl]-benzamide] | 103 | 90 |
| O=C(N[C@@H]1CCCc2ccc(C(=O)N3CC4(CCN(c5ccncc5)CC4)C3)cc21)c1ccccc1Cl [Example H-71, 2-Chloro-N-[(1R)-7-(7-pyridin-4-yl-2,7-diazaspiro[3.5]nonane-2-carbonyl)-1,2,3,4-tetrahydro-naphthalen-1-yl]-benzamide] | 103 | 100 |
| O=C(N[C@@H]1CCCc2ccc(C(=O)N3CCC4(CC3)CCN(c3ccncc3)C4)cc21)c1ccccc1Cl [Example H-72] | 104 | 100 |
| O=C(N[C@@H]1CCOc2c(F)cc(C(=O)N3CCC4(CCN(c5ccncc5)CC4)C3)cc21)c1ccccc1Cl [Example H-73, 2-Chloro-N-[(4R)-8-fluoro-6-(8-pyridin-4-yl-3,8-diazaspiro[4.5]decane-3-carbonyl)-3,4-dihydro-2H-chromen-4-yl]-benzamide] | 103 | 100 |
| Cc1cc(OC(F)(F)F)ccc1C(=O)N[C@@H]1CCc2ccc(C(=O)N3CCC4(CCN(c5ccncc5)CC4)C3)cc21 [Example H-74, 2-Methyl-N-[(1R)-6-(8-pyridin-4-yl-3,8-diazaspiro[4.5]decane-3-carbonyl)-2,3-dihydro-1H-inden-1-yl]-4-(trifluoromethyloxy)-benzamide] | 100 | 94 |
| Cc1cc(OC(F)(F)F)ccc1C(=O)N[C@@H]1CCc2ccc(C(=O)N3CCC4(CC3)CCN(c3ccncc3)C4)cc21 [Example H-75, 2-Methyl-N-[(1R)-6-(3-pyridin-4-yl-3,8-diazaspiro[4.5]decane-8-carbonyl)-2,3-dihydro-1H-inden-1-yl]-4-(trifluoromethyloxy)-benzamide] | 64 | 29 |
| O=C(N[C@@H]1CCc2ccc(C(=O)N3CCC4(CCN(c5ccncc5)CC4)C3)cc21)c1c(Cl)cccc1C(F)(F)F [Example H-76, 2-Chloro-N-[(1R)-6-(8-pyridin-4-yl-3,8-diazaspiro[4.5]decane-3-carbonyl)-2,3-dihydro-1H-inden-1-yl]-6-(trifluoromethyl)-benzamide] | 102 | 100 |
| O=C(N[C@@H]1CCOc2c(F)cc(C(=O)N3CCC4(CC3)CCN(c3ccncc3)CC4)cc21)c1ccccc1Cl [Example H-78] | 104 | 100 |
| O=C(N[C@@H]1CCCc2ccc(C(=O)N3CCC4(CCCN(c5ccncc5)C4)CC3)cc21)c1ccccc1Cl [Example H-80] | 105 | 57 |
| O=C(N[C@@H]1CCCc2ccc(C(=O)N3CCC4(CCCN(c5ccncc5)C4)C3)cc21)c1ccccc1Cl (stereo partly drawn) [Example H-81, 2-Chloro-N-[(1R)-7-(7-pyridin-4-yl-3,7-diazaspiro[4.5]decane-3-carbonyl)-1,2,3,4-tetrahydro-naphthalen-1-yl]-benzamide] | 103 | 78 |
| O=C(N[C@@H]1CCCc2cc(F)c(C(=O)N3CCC4(CCN(c5ccncc5)CC4)C3)cc21)c1ccccc1Cl [Example H-82, 2-Chloro-N-[(1R)-6-fluoro-7-(8-pyridin-4-yl-3,8-diazaspiro[4.5]decane-3-carbonyl)-1,2,3,4-tetrahydro-naphthalen-1-yl]-benzamide] | 104 | 100 |
| O=C(N[C@@H]1CCc2ccc(C(=O)N3CCC4(CC3)CCN(c3ccncc3)C4)cc21)c1c(Cl)cccc1C(F)(F)F [Example H-83, 2-Chloro-N-[(1R)-6-(3-pyridin-4-yl-3,8-diazaspiro[4.5]decane-8-carbonyl)-2,3-dihydro-1H-inden-1-yl]-6-(trifluoromethyl)-benzamide] | 105 | 100 |
| O=C(N[C@@H]1CCc2ccc(C(=O)N3CCC4(CCN(c5ccncc5)CC4)C3)cc21)c1cncnc1 [Example H-84, N-[(1R)-6-(8-Pyridin-4-yl-3,8-diazaspiro[4.5]decane-3-carbonyl)-2,3-dihydro-1H-inden-1-yl]-pyrimidine-5-carboxylic acid amide] | 104 | 100 |
| O=C(N[C@@H]1CCc2ccc(C(=O)N3CCC4(CC3)CCN(c3ccncc3)CC4)cc21)c1c(Cl)cccc1C(F)(F)F [Example H-85, 2-Chloro-N-[(1R)-6-(9-pyridin-4-yl-3,9-diazaspiro[5.5]undecane-3-carbonyl]-2,3-dihydro-1H-inden-1-yl]-6-(trilfuoromethyl)-benzamide] | 103 | 100 |
| O=C(N[C@@H]1CCc2ccc(C(=O)N3CCC4(CC3)CCN(c3ccncc3)C4)cc21)c1cncnc1 [Example H-86, N-[(1R)-6-(3-Pyridin-4-yl-3,8-diazaspiro[4.5]decane-8-carbonyl)-2,3-dihydro-1H-inden-1-yl]-pyrimidine-5-carboxylic acid amide] | 79 | 95 |
| O=C(N[C@@H]1CCCc2cc(F)c(C(=O)N3CCC4(CC3)CCN(c3ccncc3)C4)cc21)c1ccccc1Cl [Example H-87, 2-Chloro-N-[(1R)-6-fluoro-7-(3-pyridin-4-yl-3,8-diazaspiro[4.5]decane-8-carbonyl)-1,2,3,4-tetrahydro-naphthalen-1-yl]-benzamide] | 103 | 99 |
| O=C(N[C@@H]1CCCc2cc(F)c(C(=O)N3CCC4(CC3)CCN(c3ccncc3)CC4)cc21)c1ccccc1Cl [Example H-88] | 104 | 100 |
| O=C(N[C@@H]1CCc2cc(F)c(C(=O)N3CCC4(CC3)CCN(c3ccncc3)C4)cc21)c1ccccc1Cl [Example H-89, 2-Chloro-N-[(1R)-5-fluoro-6-(3-pyridin-4-yl-3,8-diazaspiro[4.5]decane-8-carbonyl)-2,3-dihydro-1H-inden-1-yl]-benzamide] | 103 | 99 |
| O=C(N[C@@H]1CCc2cc(F)c(C(=O)N3CCC4(CC3)CCN(c3ccncc3)CC4)cc21)c1ccccc1Cl [Example H-90, 2-Chloro-N-[(1R)-5-fluoro-6-(9-pyridin-4-yl-3,9-diazaspiro[5.5]undecane-3-carbonyl)-2,3-dihydro-1H-inden-1-yl]-benzamide] | 103 | 100 |
| O=C(N[C@@H]1CCc2ccc(C(=O)N3CCC4(CC3)CCN(c3ccncc3)C4)cc21)c1ccccc1Cl [Example H-91, 2-Chloro-N-[(1R)-6-(3-pyridin-4-yl-3,8-diazaspiro[4.5]decane-8-carbonyl)-2,3-dihydro-1H-inden-1-yl]-benzamide] | 104 | 100 |
| O=C(N[C@@H]1CCOc2cc(F)c(C(=O)N3CCC4(CC3)CCN(c3ccncc3)CC4)cc21)c1ccccc1Cl [Example H-92, 2-Chloro-N-[(4R)-7-fluoro-6-(9-pyridin-4-yl-3,9-diazaspiro[5.5]undecane-3-carbonyl)-3,4-dihydro-2H-chromen-4-yl]-benzamide] | 104 | 96 |
